# According to ChEMBL document CHEMBL5375955, “Discovery of New Fusobacterium nucleatum Inhibitors to Attenuate Migratory Capability of Colon Cancer Cells by the Drug Repositioning Strategy” (J Med Chem, 2023):
# Active and inactive are the calls of the source. The rule behind the calls is not given here.
# Assays:
# Fusobacterium nucleatum [1] = experiment: Antibacterial activity against Fusobacterium nucleatum ATCC 23726 assessed as bacterial growth inhibition incubated for 48 hrs by broth dilution susceptibility test; format: functional
# MC-38 = experiment: Antiproliferative activity against mouse MC-38 cells assessed as inhibition of cell growth incubated for 48 hrs by CCK-8 assay; format: functional, cell-based; conditions: MC-38, 48 h
# HCT-116 = experiment: Antiproliferative activity against human HCT-116 cells assessed as inhibition of cell growth incubated for 48 hrs by CCK-8 assay; format: functional, cell-based; conditions: HCT-116, 48 h
# [2] = Cytotoxicity against HUVEC cells assessed as inhibition of cell growth incubated for 48 hrs by CCK-8 assay; format: toxicity, cell-based; conditions: human
# [3] = Cytotoxicity against human L02 cells assessed as inhibition of cell growth incubated for 48 hrs by CCK-8 assay; format: toxicity, cell-based
# Fusobacterium nucleatum [4] = experiment: Antibiofilm activity against Fusobacterium nucleatum ATCC 23726 assessed as inhibition of biofilm formation incubated for 48 hrs by crystal violet staining based assay; format: functional, organism-based; conditions: dose 0.5-16 µg/ml
# Escherichia coli = experiment: Antibacterial activity against Escherichia coli […] assessed as bacterial growth inhibition incubated for 48 hrs by broth dilution susceptibility test; format: functional
# Enterococcus faecalis = experiment: Antibacterial activity against Enterococcus faecalis ATCC 29212 assessed as bacterial growth inhibition incubated for 48 hrs by broth dilution susceptibility test; format: functional
# Staphylococcus aureus = experiment: Antibacterial activity against Staphylococcus aureus ATCC 6538 assessed as bacterial growth inhibition incubated for 48 hrs by broth dilution susceptibility test; format: functional
# [5] = test system: Peptostreptococcus anaerobius; experiment: Antibacterial activity against Peptostreptococcus anaerobius ATCC 27337 assessed as bacterial growth inhibition incubated for 48 hrs by broth dilution susceptibility test; format: functional
# Akkermansia muciniphila = experiment: Antibacterial activity against Akkermansia muciniphila ATCC BAA-835 assessed as bacterial growth inhibition incubated for 48 hrs by broth dilution susceptibility test; format: functional
# [6] = test system: Salmonella enterica subsp. enterica serovar Paratyphi B; experiment: Antibacterial activity against Salmonella paratyphi B ATCC CMCC50094 assessed as bacterial growth inhibition incubated for 48 hrs by broth dilution susceptibility test; format: functional
# Shigella flexneri = experiment: Antibacterial activity against Shigella flexneri ATCC 12022 assessed as bacterial growth inhibition incubated for 48 hrs by broth dilution susceptibility test; format: functional
# [7] = test system: Lactobacillus acidophilus; experiment: Antibacterial activity against Lactobacillus acidophilus ATCC CGMCC 1.577 assessed as bacterial growth inhibition incubated for 48 hrs by broth dilution susceptibility test; format: functional
# Fusobacterium nucleatum [8] = experiment: Inhibition of Fusobacterium nucleatum ATCC 23726 stimulated mouse MC-38 cell migration assessed as reduction in number of migrating cells at 16 to 32 ug/ml incubated for 48 hrs by crystal violet staining based transwell assay; format: functional; conditions: dose 16-32 µg/ml
# Fusobacterium nucleatum [9] = experiment: Antibacterial activity against Fusobacterium nucleatum ATCC 23726 assessed as downregulation of NTR gene expression incubated for 48 hrs by RT-qPCR analysis; format: functional, organism-based
# Fusobacterium nucleatum [10] = experiment: Antibiofilm activity against Fusobacterium nucleatum ATCC 23726 assessed as downregulation of tnaA gene expression measured after 48 hrs by RT-qPCR analysis; format: functional, organism-based
# L02 = experiment: Downregulation of HPPD gene expression in human L02 cells at 10 to 50 uM incubated for 48 hrs by RT-qPCR analysis; format: functional, cell-based; conditions: dose 10-50 µM
# [11] = Acute toxicity in ICR mouse assessed as death rate at 2160 mg/kg, po measured after 7 days; format: organism-based; conditions: in vivo, time 7 day, read-out: Activity
# [12] = Acute toxicity in ICR mouse assessed as death rate at 2592 mg/kg, po measured after 7 days; format: organism-based; conditions: in vivo, time 7 day, read-out: Activity
# [13] = Acute toxicity in po dosed ICR mouse assessed as animal death measured after 7 days; format: organism-based; conditions: in vivo, time 7 day
# [14] = Acute toxicity in po dosed ICR mouse assessed as lung damage by measuring thickening of alveolar walls at 1500 mg/kg, po measured after 7 days by H and E staining based analysis; format: organism-based; conditions: in vivo, 168 h, time 7 day
# [15] = Acute toxicity in po dosed ICR mouse assessed as kidney damage by measuring atrophy of glomerulus at 1500 mg/kg, po measured after 7 days by H and E staining based analysis; format: organism-based; conditions: in vivo, 168 h, time 7 day
# Fusobacterium nucleatum [16] = experiment: Antibacterial activity against Fusobacterium nucleatum ATCC 23726 assessed as bacterial growth inhibition at 8 ug/ml incubated for 72 hrs by turbidimeter analysis; format: functional, organism-based; conditions: dose 8.0 µg/ml
# Fusobacterium nucleatum [17] = experiment: Antibacterial activity against Fusobacterium nucleatum ATCC 23726 assessed as bacterial growth inhibition incubated for 72 hrs by turbidimeter analysis; format: functional, organism-based
smiles,measurement,setting,value
CS(=O)(=O)c1ccc(C(=O)C2C(=O)CCCC2=O)c([N+](=O)[O-])c1 [MESOTRIONE],MIC50,Fusobacterium nucleatum [1],32 µg/mL
Cc1ccc(OC(=O)c2ccc(C(F)(F)F)cc2[N+](=O)[O-])c(C(N)=O)c1,MIC50,Fusobacterium nucleatum [1],64 µg/mL
O=C1CCCC(=O)C1C(=O)c1ccc(C(F)(F)F)cc1[N+](=O)[O-] [NITISINONE],MIC50,Fusobacterium nucleatum [1],8 µg/mL
same,IC50,MC-38,96 µM
same,IC50,HCT-116,108 µM
same,IC50 at 48 h,[2],338 µM
same,IC50 at 48 h,[3],104 µM
same,inhibition,Fusobacterium nucleatum [4],Dose-Dependent Effect
same,MIC50,Escherichia coli,> 64 µg/mL
same,MIC50,Enterococcus faecalis,> 64 µg/mL
same,MIC50,Staphylococcus aureus,> 64 µg/mL
same,MIC50,[5],> 64 µg/mL
same,MIC50,Akkermansia muciniphila,> 64 µg/mL
same,MIC50,[6],> 64 µg/mL
same,MIC50,Shigella flexneri,> 64 µg/mL
same,MIC50,[7],64 µg/mL
same,inhibition,Fusobacterium nucleatum [8],Active
same,Activity,Fusobacterium nucleatum [9],Dose-Dependent Effect
same,Activity,Fusobacterium nucleatum [10],Dose-Dependent Effect
same,Activity,L02,Active
same,mortality at 168 h,[11],100%
same,mortality at 168 h,[12],90%
same,LD50 at 168 h,[13],1610 mg/kg
same,Activity,[14],Toxic
same,Activity,[15],Toxic
O=[N+]([O-])c1ccc(COc2ccc(C(F)(F)F)cc2[N+](=O)[O-])o1,MIC50,Fusobacterium nucleatum [1],4 µg/mL
Cl.Cl.Cl.O[C@@H](COc1cccc2ncccc12)CN1CCN([C@@H]2c3ccccc3[C@@H]3[C@H](c4ccccc42)C3(F)F)CC1 [ZOSUQUIDAR TRIHYDROCHLORIDE],MIC50,Fusobacterium nucleatum [1],16 µg/mL
O=C(CCc1ccc([N+](=O)[O-])cc1)Nc1ccon1,MIC50,Fusobacterium nucleatum [1],> 64 µg/mL
CS(=O)(=O)c1ccc(C(=O)C2C(=O)CCCC2=O)c(Cl)c1COCC(F)(F)F [TEMBOTRIONE],MIC50,Fusobacterium nucleatum [1],> 64 µg/mL
Cc1cc(=O)oc2ccc(OC(=O)c3ccc([N+](=O)[O-])c(F)c3)cc12,MIC50,Fusobacterium nucleatum [1],> 64 µg/mL
O=C1NCCN1CCN1CCC(c2cn(-c3ccc(F)cc3)c3ccc(Cl)cc23)CC1 [SERTINDOLE],MIC50,Fusobacterium nucleatum [1],16 µg/mL
Cn1c([N+](=O)[O-])cnc1COC(N)=O [RONIDAZOLE],MIC50,Fusobacterium nucleatum [1],2 µg/mL
CN(N=O)C(=O)N[C@@H](C=O)[C@@H](O)[C@H](O)[C@H](O)CO [STREPTOZOCIN],MIC50,Fusobacterium nucleatum [1],0.125 µg/mL
CSc1ccc(OCc2ncc([N+](=O)[O-])n2C)cc1 [FEXINIDAZOLE],MIC50,Fusobacterium nucleatum [1],8 µg/mL
NC(=O)c1ccc(NC(=O)c2ccc(C(F)(F)F)cc2[N+](=O)[O-])cc1,MIC50,Fusobacterium nucleatum [1],> 64 µg/mL
O=C(NCc1ccncc1)c1ccc(C(F)(F)F)cc1[N+](=O)[O-],MIC50,Fusobacterium nucleatum [1],64 µg/mL
COC(=O)OCc1ccc(NC(=O)c2ccc(C(F)(F)F)cc2[N+](=O)[O-])cc1,MIC50,Fusobacterium nucleatum [1],> 64 µg/mL
O=C(Nc1ccon1)c1ccc([N+](=O)[O-])c(Br)c1,MIC50,Fusobacterium nucleatum [1],> 64 µg/mL
O=C(OCc1ccc([N+](=O)[O-])o1)c1ccc(C(F)(F)F)cc1[N+](=O)[O-],MIC50,Fusobacterium nucleatum [1],4 µg/mL
same,IC50,MC-38,49 µM
same,IC50,HCT-116,84 µM
same,IC50 at 48 h,[2],40 µM
same,IC50 at 48 h,[3],81 µM
same,Activity,Fusobacterium nucleatum [16],Active
same,Activity,Fusobacterium nucleatum [17],Dose-Dependent Effect
same,MIC50,Escherichia coli,> 64 µg/mL
same,MIC50,Enterococcus faecalis,> 64 µg/mL
same,MIC50,Staphylococcus aureus,> 64 µg/mL
same,MIC50,[5],> 64 µg/mL
same,MIC50,Akkermansia muciniphila,> 64 µg/mL
same,MIC50,[6],64 µg/mL
same,MIC50,Shigella flexneri,> 64 µg/mL
same,MIC50,[7],64 µg/mL
